These results are taken from publication PMC6274786 (International Journal of Molecular Sciences, 2018).

Each structure is given as a SMILES string. Like-named read-outs stand apart in the source and are kept apart here.

For test [1], the system named is PTZ-induced seizure. Description: Pentylenetetrazole (PTZ)-induced seizure. The format is in vivo, Wistar rats. The note with it: for protective effect in PTZ-induced seizure (in words): observed over 30 min, vs saline-treated group; for PTZ-Induced Seizure (protection class): PTZ 60 mg/kg. How it is done: (§1) In this study and according to previously used protocols, two chemical agents have been used to induce seizures, namely pentylenetetrazole (PTZ, 60 mg/kg, i.p.) and strychnine (STR, 3.5 mg/kg, i.p.). PTZ 60 mg/kg or STR 3.5 mg/kg were administered i.p. to all groups of seven rats (n = 7), that is, animals pretreated with vehicle or test compounds 1–16. Vehicle, VPA (300 mg/kg, i.p.), [26, 47, 48, 49] or test compounds 1–16 (10 mg/kg, i.p.) were systemically administered 30–45 min before PTZ (60 mg/kg, i.p.) or STR (3.5 mg/kg, i.p.) injection, and animals were directly observed for any signs of convulsion for a duration of 30 min. The observed scores as well as percent protection against generalized tonic-clonic seizure (GTCS) were graded and scaled according to the Racine scale (stage 0, no change in behavior; stage 1, stereotype mouthing, eye blinking, and/or mild facial clonus; stage 2, head nodding and/or severe facial clonus; stage 3, myoclonic jerk in forelimbs; stage 4, clonic convulsions in the forelimbs with rearing; stage 5, generalized colonic convulsions associated with loss of balance) to evaluate the protection provided by the respective test compound against seizures. The animals were divided into eighteen groups of seven rats (n = 7) and treated as follows.
(§2) (1) Control group injected with vehicle + PTZ (SAL group), (2) positive control group in which rats were injected with VPA (300 mg/kg) + PTZ (VPA group), and animals in the test groups (3)–(18) were systemically administered with test compounds 1–16 (10 mg/kg), respectively. An additional PTZ experiment was conducted using three different groups of seven rats (n = 7), the H3R ligand with the most promising protection in PTZ model was administered at doses of 2.5, 5, or 15 mg/kg, i.p. 30–45 min before the PTZ challenge. […] The same experimental procedure was followed in the STR-induced seizure model applying the reference drug VPA, which was used at a dose of 300 mg/kg, i.p. (Figure 3, Table 2).

For test [2], the target named is T1, human histamine H3R (Homo sapiens, UniProt Q9Y5N1).
T1 construct: expressed in transfected cells
T1 sequence (Q9Y5N1 whole entry): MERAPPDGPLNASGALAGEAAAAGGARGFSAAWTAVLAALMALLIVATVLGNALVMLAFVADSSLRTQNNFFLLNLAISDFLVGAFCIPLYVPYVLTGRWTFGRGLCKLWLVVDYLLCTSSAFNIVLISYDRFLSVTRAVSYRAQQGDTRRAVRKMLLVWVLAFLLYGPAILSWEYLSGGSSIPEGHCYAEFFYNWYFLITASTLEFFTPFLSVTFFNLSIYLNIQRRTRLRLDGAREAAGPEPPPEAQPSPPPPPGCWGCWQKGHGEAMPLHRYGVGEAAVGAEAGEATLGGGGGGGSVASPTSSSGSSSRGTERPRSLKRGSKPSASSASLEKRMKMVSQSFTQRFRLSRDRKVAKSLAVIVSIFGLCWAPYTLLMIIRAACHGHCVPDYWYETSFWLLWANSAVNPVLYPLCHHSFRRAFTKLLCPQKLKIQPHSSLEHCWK
Put plainly: [3H]Nα-methylhistamine radioligand displacement assay, HEK-293 cell membranes. The format is binding. How it is done:
As described previously, the affinity for the human histamine H3R was tested utilizing radioligand displacement assays with [^3H]N^α-methylhistamine at membrane preparations from human embryonic kidney (HEK)-293 cells, stably expressing the receptor. […] The analysis of data was conducted by the software GraphPad Prism 7 (San Diego, CA, USA), using the “one-site competition” equation. Ki values were calculated from the 50 percent of inhibitory concentration (IC50) values according to the Cheng-Prusoff equation [44]
(In general: Displacement assays read how much labelled ligand stays bound in the presence of the test substance.)

The subject of test [3] is STR-induced seizure. Description: Strychnine (STR)-induced seizure. The format is in vivo, Wistar rats. To be noted: for STR-Induced Seizure (protection class): STR 3.5 mg/kg. How it is done: as §1, §2
In test [4] the test system is MES-induced seizure. Put plainly: Maximal electroshock (MES)-induced seizure. It is filed as in vivo, Wistar rats. The note with it: 10 mg/kg i.p.; for MES-Induced Seizure (protection class): 50 Hz, 120 mA, 1 s. From the text: As previously described, the seizures were induced in rats with a 50 Hz alternating current of 120 mA intensity. The current was applied through ear electrodes for 1 s. Protection against the spread of MES-induced seizure was defined as the abolition of the tonic hind limb extension (THLE) component of the seizure. For the first screening of protective effects of test compounds 1–16 in the MES-induced seizure model, the animals were divided into eighteen groups of seven rats (n = 7) as follows; group (1) control group injected with vehicle (SAL), group (2) positive control group in which rats were injected with PHT at a dose of 10 mg/kg (this being the minimal dose of PHT that protected animals against the spread of MES-induced seizures without mortality), and groups (3)–(18) animals in the experimental groups were administered H3R antagonists 1–16 at a dose of 10 mg/kg. In another MES experiment in three separate groups of six rats (n = 6), H3R antagonist 4 with the most promising protection in MES model was administered at doses of 2.5, 5, or 15 mg/kg, i.p. 30–45 min before the MES challenge.
In general terms: Protection in the maximal electroshock model is a classic sign of anticonvulsant action.

The target in test [5] is T2, human H1 receptor (Homo sapiens, UniProt P35367).
T2 construct: purchased PerkinElmer; host or cells: CHO-K1 cells, stably transfected (membranes)
T2 sequence (P35367 whole entry): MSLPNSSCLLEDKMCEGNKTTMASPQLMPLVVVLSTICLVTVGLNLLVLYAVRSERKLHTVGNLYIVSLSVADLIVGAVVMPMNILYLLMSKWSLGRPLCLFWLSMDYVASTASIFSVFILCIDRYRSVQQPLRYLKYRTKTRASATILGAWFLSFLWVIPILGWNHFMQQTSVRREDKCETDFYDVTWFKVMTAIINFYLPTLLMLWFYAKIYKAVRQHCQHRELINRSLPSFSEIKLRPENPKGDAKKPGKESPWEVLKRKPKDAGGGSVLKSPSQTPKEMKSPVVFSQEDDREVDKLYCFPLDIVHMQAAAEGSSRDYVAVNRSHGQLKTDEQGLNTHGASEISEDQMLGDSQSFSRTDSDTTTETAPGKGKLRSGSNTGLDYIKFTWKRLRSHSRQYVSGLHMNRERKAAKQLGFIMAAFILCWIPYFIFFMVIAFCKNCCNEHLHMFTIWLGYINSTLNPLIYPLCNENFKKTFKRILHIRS
Description: Radioligand binding, membranes from CHO-K1 cells. How it is done:
Radioligand binding was performed as previously described using membranes from CHO-K1 cells stably transfected with the human H1 receptor (PerkinElmer., Waltham, MA, USA). Data were fitted to a one-site curve-fitting equation with Prism 6 (GraphPad Software, city, state, country) and Ki values were estimated from the Cheng–Prusoff equation [44].

[6] abbreviates: mean with 95% confidence interval, read-out: In Vitro Affinity Ki (hH3R) in nM [CI].

The Ki is the equilibrium dissociation constant of an inhibitor or competing ligand from its target. Turning to `Fc1ccc(OCCCCCCN2CCCCC2)cc1.O=C(O)C(=O)O` [Ligand 11, 1-(6-(4-fluorophenoxy)hexyl)piperidine hydrogen oxalate], in test [1] (10 mg/kg i.p.), the “protective effect in PTZ-induced seizure (in words)” value is recorded as “full protective activities” and the “PTZ-Induced Seizure (protection class)” value is on record as “++ (high protective effect (THLE duration <1, seizure score 0))”. Also, the Ki in test [2] (setting [6]) is 115 nM. The “protective effect in STR-induced seizure (in words)” value in test [3] (10 mg/kg i.p., 30 min observation, vs saline-treated group) was “failed to exhibit appreciable protection”. In test [3] (10 mg/kg i.p.), the “STR-Induced Seizure (protection class)” value is “−”. Moreover, in test [4], the “MES-Induced Seizure (protection class)” value was “−”.
As for `CC1CCCN(CCCCCCOc2cccc(C(=O)c3ccccc3)c2)C1.O=C(O)C(=O)O` (stereo not shown) [Ligand 9, (3-(6-(3-methylpiperidin-1-yl)hexyloxy)phenyl)(phenyl)methanone hydrogen oxalate], the “PTZ-Induced Seizure (protection class)” value in test [1] (10 mg/kg i.p.) is on record as “−”. Further, the Ki in test [2] was 110 nM; in test [5], 915 to 1340 nM. In addition, in test [3] (10 mg/kg i.p.), the “STR-Induced Seizure (protection class)” value was “−”. In addition, in test [4], the “MES-Induced Seizure (protection class)” value is recorded as “−”.
Take `CC1CCCN(CCCCCCOc2ccc(F)cc2)C1.O=C(O)C(=O)O` (stereo not shown) [Ligand 12, 1-(6-(4-fluorophenoxy)hexyl)-3-methylpiperidine hydrogen oxalate]: the “PTZ-Induced Seizure (protection class)” value in test [1] (10 mg/kg i.p.) is recorded as “+ (moderate protective effect (tonic hind limb extension (THLE) duration in the range of 2–5 s, seizure score in the range of 2–4))”. Further, in test [2] (setting [6]), the Ki amounted to 83.6 nM. Besides, the “STR-Induced Seizure (protection class)” value in test [3] (10 mg/kg i.p.) is recorded as “−”. Besides, the “MES-Induced Seizure (protection class)” value in test [4] is listed as “−”.
For `O=C(O)C(=O)O.O=C(c1ccccc1)c1ccc(OCCCCCN2CCCCCC2)cc1` [Ligand 16, (4-(5-(azepan-1-yl)pentyloxy)phenyl)(phenyl)methanone hydrogen oxalate], the “PTZ-Induced Seizure (protection class)” value in test [1] (10 mg/kg i.p.) is listed as “−”. In test [2], this molecule yielded a Ki of 38.5 nM. Further, the “STR-Induced Seizure (protection class)” value in test [3] (10 mg/kg i.p.) was “−”. The “MES-Induced Seizure (protection class)” value in test [4] is “−”.
As for `C[C@@H](N)Cc1c[nH]cn1` [RAMH, (R)-α-methylhistamine, reference compound], in test [1] (10 mg/kg i.p.), the “PTZ-Induced Seizure % Protection against GTCS” value amounted to 14.29%, the “PTZ-Induced Seizure Average Seizure Score” value turned out to be 4.29 ± 0.25 and the “protective effect in PTZ-induced seizure (in words)” value was “did not affect seizure score”. In test [3] (10 mg/kg i.p.), the “STR-Induced Seizure % Protection against GTCS” value stood at 28.57% and the “STR-Induced Seizure Average Seizure Score” value is 4.71 ± 0.16. Besides, the “MES-Induced Seizure Average THLE” value in test [4] is 7.92 ± 0.60 s. In addition, the “protective effect in MES-induced seizure (in words)” value in test [4] (vs saline-treated group) is recorded as “did not affect MES-induced seizures”.
With `CC1CCCN(CCCCCCOc2ccc3ccccc3c2)C1.O=C(O)C(=O)O` (stereo not shown) [Ligand 3, 3-methyl-1-(6-(naphthalen-2-yloxy)hexyl)piperidine hydrogen oxalate], the “PTZ-Induced Seizure (protection class)” value in test [1] (10 mg/kg i.p.) is “−”. Besides, in test [3] (10 mg/kg i.p.), the “STR-Induced Seizure (protection class)” value was “−”. In addition, the “MES-Induced Seizure (protection class)” value in test [4] is listed as “++ (high protective effect (THLE duration <1, seizure score 0))”.
As to `CCCC(CCC)C(=O)O` [VPA, valproic acid, reference compound], in test [1] (300 mg/kg i.p.), the “PTZ-Induced Seizure % Protection against GTCS” value came out at 100% and the “PTZ-Induced Seizure Average Seizure Score” value worked out at 0.00 ± 0.00. In addition, in test [3] (300 mg/kg i.p.), the “STR-Induced Seizure % Protection against GTCS” value was 100% and the “STR-Induced Seizure Average Seizure Score” value was 0.
On to `O=C(O)C(=O)O.c1ccc2cc(OCCCCCN3CCCCCC3)ccc2c1` [Ligand 2, 1-(5-(naphthalen-2-yloxy)pentyl)azepane hydrogen oxalate], for which the “PTZ-Induced Seizure (protection class)” value in test [1] (10 mg/kg i.p.) is “−”. For the same molecule, the “STR-Induced Seizure (protection class)” value in test [3] (10 mg/kg i.p.) was “−”. Further, the “MES-Induced Seizure (protection class)” value in test [4] is “−”.
On to `O=C(O)C(=O)O.O=C(c1ccccc1)c1ccc(OCCCCCN2CCCCC2)cc1` [Ligand 14, phenyl(4-(5-(piperidin-1-yl)pentyloxy)phenyl)methanone hydrogen oxalate], for which the “PTZ-Induced Seizure (protection class)” value in test [1] (10 mg/kg i.p.) is reported as “+ (moderate protective effect (tonic hind limb extension (THLE) duration in the range of 2–5 s, seizure score in the range of 2–4))”. For the same molecule, the inhibitory constant (Ki) in test [2] is 36.2 nM. In test [3] (10 mg/kg i.p.), the “STR-Induced Seizure (protection class)” value is on record as “−”. Also, the “MES-Induced Seizure (protection class)” value in test [4] is reported as “+ (moderate protective effect (tonic hind limb extension (THLE) duration in the range of 2–5 s, seizure score in the range of 2–4))”.
For the molecule `O=C1NC(=O)C(c2ccccc2)(c2ccccc2)N1` [PHT, phenytoin, reference compound], the “MES-Induced Seizure Average THLE” value in test [4] came out at 0.90 ± 0.19 s.
Regarding `O=C(O)C(=O)O.O=C(c1ccccc1)c1cccc(OCCCCCCN2CCCCCC2)c1` [Ligand 10, (3-(6-(azepan-1-yl)hexyloxy)phenyl)(phenyl)methanone hydrogen oxalate], the “PTZ-Induced Seizure (protection class)” value in test [1] (10 mg/kg i.p.) is recorded as “−”. The molecule also returned a Ki in test [2] of 69.5 nM. Also, the “STR-Induced Seizure (protection class)” value in test [3] (10 mg/kg i.p.) is recorded as “−”. For the same molecule, the “MES-Induced Seizure (protection class)” value in test [4] is “−”.
For the molecule `O=C(O)C(=O)O.O=C(c1ccccc1)c1ccc(OCCCCCCN2CCCCC2)cc1` [Ligand 5, phenyl(4-(6-(piperidin-1-yl)hexyloxy)phenyl)methanone hydrogen oxalate], in test [1] (10 mg/kg i.p.), the “PTZ-Induced Seizure (protection class)” value is “−”. The same molecule had a Ki in test [2] of 41.1 nM. The “STR-Induced Seizure (protection class)” value in test [3] (10 mg/kg i.p.) is recorded as “−”. Also, in test [4], the “MES-Induced Seizure (protection class)” value is given as “++ (high protective effect (THLE duration <1, seizure score 0))”.
For `CC1CCCN(CCCCCOc2ccc3ccccc3c2)C1.O=C(O)C(=O)O` (stereo not shown) [Ligand 1, 3-methyl-1-(5-(naphthalen-2-yloxy)pentyl)piperidine hydrogen oxalate], the “PTZ-Induced Seizure (protection class)” value in test [1] (10 mg/kg i.p.) is listed as “−”. Also, in test [3] (10 mg/kg i.p.), the “STR-Induced Seizure (protection class)” value is “−”. Besides, in test [4], the “MES-Induced Seizure (protection class)” value was “−”.
For the molecule `O=C(O)C(=O)O.O=C(c1ccccc1)c1cccc(OCCCCCCN2CCCCC2)c1` [Ligand 8, phenyl(3-(6-(piperidin-1-yl)hexyloxy)phenyl)methanone hydrogen oxalate], the “PTZ-Induced Seizure (protection class)” value in test [1] (10 mg/kg i.p.) is reported as “−”. In test [2], this molecule showed a Ki of 76.1 nM. The “STR-Induced Seizure (protection class)” value in test [3] (10 mg/kg i.p.) is given as “−”. Besides, the “MES-Induced Seizure (protection class)” value in test [4] was “+ (moderate protective effect (tonic hind limb extension (THLE) duration in the range of 2–5 s, seizure score in the range of 2–4))”.
On to `CC1CCCN(CCCCCOc2ccc(C(=O)c3ccccc3)cc2)C1.O=C(O)C(=O)O` (stereo not shown) [Ligand 15, (4-(5-(3-methylpiperidin-1-yl)pentyloxy)phenyl)(phenyl)methanone hydrogen oxalate], for which the “PTZ-Induced Seizure (protection class)” value in test [1] (10 mg/kg i.p.) is on record as “+ (moderate protective effect (tonic hind limb extension (THLE) duration in the range of 2–5 s, seizure score in the range of 2–4))”. Besides, the Ki in test [2] was 40.2 nM; in test [5], 915 to 1340 nM. For the same molecule, in test [3] (10 mg/kg i.p.), the “STR-Induced Seizure (protection class)” value is “−”. Besides, the “MES-Induced Seizure (protection class)” value in test [4] was “−”.
